# In article PMC7430754, “Cloning and functional complementation of ten Schistosoma mansoni phosphodiesterases expressed in the mammalian host stages” (PLoS Neglected Tropical Diseases, 2020):
# What was measured:
# TbrPDEB2 = target: T1, TbrPDEB2 (Trypanosoma brucei, UniProt Q38F42); assay: alamar blue growth assay of T. brucei TbrPDEB1/B2 double knockout dependent on this PDE; type: cell-based; conditions: growth read-out of whole trypanosomes, not enzyme assay; HMI-11 medium, 37 °C, 48 h plus 24 h resazurin
# T1 construct: gene Tb09.160.3630; full length, C-terminal 6Myc tag, expressed from rRNA locus in T. b. brucei 2T1 lacking endogenous TbrPDEB1/B2
# T1 sequence (Q38F42 entry or part of it): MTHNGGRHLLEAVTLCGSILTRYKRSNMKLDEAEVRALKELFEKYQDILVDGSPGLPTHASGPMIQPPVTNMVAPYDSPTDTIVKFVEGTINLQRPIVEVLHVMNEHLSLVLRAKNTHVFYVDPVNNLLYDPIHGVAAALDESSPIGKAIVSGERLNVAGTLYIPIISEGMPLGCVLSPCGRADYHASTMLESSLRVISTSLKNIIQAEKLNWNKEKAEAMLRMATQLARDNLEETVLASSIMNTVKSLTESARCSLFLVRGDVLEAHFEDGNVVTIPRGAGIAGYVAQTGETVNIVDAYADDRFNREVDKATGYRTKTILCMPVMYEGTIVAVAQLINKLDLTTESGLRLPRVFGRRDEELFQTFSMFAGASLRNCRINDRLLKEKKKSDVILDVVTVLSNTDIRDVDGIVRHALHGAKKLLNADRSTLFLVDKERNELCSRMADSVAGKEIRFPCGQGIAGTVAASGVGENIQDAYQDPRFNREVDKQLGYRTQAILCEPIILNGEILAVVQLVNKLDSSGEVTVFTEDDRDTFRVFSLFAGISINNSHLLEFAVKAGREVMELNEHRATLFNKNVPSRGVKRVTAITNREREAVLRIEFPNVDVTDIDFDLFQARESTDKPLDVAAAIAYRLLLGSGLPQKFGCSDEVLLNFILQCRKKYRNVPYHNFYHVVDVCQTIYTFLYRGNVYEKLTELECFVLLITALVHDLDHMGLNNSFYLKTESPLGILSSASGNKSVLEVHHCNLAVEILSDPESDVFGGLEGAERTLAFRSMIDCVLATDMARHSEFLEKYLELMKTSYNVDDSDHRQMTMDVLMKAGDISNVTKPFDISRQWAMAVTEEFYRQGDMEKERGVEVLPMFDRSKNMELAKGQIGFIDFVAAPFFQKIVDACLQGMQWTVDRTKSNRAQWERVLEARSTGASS
# Text: alamar blue growth assay of T. brucei TbrPDEB1/B2 double knockout dependent on this PDE on TbrPDEB2
# SmPDE4A = target: T2, SmPDE4A (Schistosoma mansoni, UniProt A0ACM8RGL1); assay: as above; type: cell-based, Trypanosoma brucei; conditions: growth read-out of whole trypanosomes, not enzyme assay; HMI-11 medium, 37 °C, 48 h plus 24 h resazurin
# T2 construct: gene PDE4A; full length 699 aa, codon-optimised, N-terminal first 70 aa of TbrPDEB1 as targeting tag, C-terminal GFP; expressed in T. b. brucei 2T1 lacking TbrPDEB1/B2
# Text: alamar blue growth assay of T. brucei TbrPDEB1/B2 double knockout dependent on this PDE on SmPDE4A
# [1] = system: T3, T. b. brucei 2T1 (parental wild type); assay: microbe, parasite or virus in culture; design: species or system T. b. brucei 2T1 bloodstream form; Alamar blue (resazurin) viability of parental bloodstream-form trypanosomes, fluorescence; conditions: Trypanosoma brucei, 72 h, read-out: 2T1-WT EC50 (μM)
# T3 construct: 2T1, bloodstream form
# Procedure: Drug sensitivities were assessed using a modified version of the alamar blue assay described previously. Briefly, test drugs were serially diluted in 100 μl of complete HMI‐11 media across two rows of a white 96-well plate (Greiner, Stonehouse, UK). Bloodstream‐form trypanosome cultures were diluted in HMI‐11, and 100 μl was added to all wells to give a final cell density of 1 × 10^5 trypanosomes/ml. Plates were incubated for 48 h at 37°C/5% CO2, prior to the addition of 20 μl of 5 mM resazurin sodium salt (Sigma‐Aldrich, Gillingham, UK) in PBS, pH7.4. Plates were incubated for a further 24 h in the same conditions, before fluorescence was measured using a FLUOstar Optima fluorimeter (BMG Labtech, Aylesbury, UK) with excitation and emission filters of 544 nm and 590 nm, respectively. […] All EC50 values were determined at least three times independently.
# TbrPDEB1 = target: T4, TbrPDEB1 (Trypanosoma brucei, UniProt Q8WQX9); assay: alamar blue growth assay of T. brucei TbrPDEB1/B2 double knockout dependent on this PDE; type: cell-based; conditions: growth read-out of whole trypanosomes, not enzyme assay; HMI-11 medium, 37 °C, 48 h plus 24 h resazurin
# T4 construct: gene PDEB1; full length, C-terminal 6Myc tag, expressed from rRNA locus in T. b. brucei 2T1 lacking endogenous TbrPDEB1/B2
# T4 sequence (Q8WQX9 entry or part of it): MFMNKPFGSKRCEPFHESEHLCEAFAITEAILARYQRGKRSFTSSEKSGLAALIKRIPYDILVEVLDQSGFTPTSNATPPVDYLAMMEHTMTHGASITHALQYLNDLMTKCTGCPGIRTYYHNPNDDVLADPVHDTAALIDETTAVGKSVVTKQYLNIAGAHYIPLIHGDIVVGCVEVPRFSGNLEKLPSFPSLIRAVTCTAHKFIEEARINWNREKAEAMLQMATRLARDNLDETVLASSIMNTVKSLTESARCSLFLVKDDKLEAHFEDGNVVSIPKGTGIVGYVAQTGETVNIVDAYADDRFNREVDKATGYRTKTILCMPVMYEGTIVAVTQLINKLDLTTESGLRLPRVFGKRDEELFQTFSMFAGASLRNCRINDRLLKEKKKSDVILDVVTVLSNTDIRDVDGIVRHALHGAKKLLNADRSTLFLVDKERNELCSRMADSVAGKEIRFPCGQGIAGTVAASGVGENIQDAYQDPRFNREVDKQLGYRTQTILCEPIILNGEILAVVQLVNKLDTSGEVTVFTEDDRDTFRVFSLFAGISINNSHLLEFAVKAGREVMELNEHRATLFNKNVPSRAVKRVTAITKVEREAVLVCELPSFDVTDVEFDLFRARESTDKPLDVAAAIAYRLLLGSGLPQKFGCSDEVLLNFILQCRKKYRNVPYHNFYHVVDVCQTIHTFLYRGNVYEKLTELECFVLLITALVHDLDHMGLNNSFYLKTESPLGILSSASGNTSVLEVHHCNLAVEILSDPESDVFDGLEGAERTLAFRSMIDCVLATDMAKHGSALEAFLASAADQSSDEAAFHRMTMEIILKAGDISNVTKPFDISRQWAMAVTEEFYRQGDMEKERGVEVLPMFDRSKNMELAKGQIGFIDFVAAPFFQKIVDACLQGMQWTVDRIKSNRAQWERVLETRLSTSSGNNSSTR
# Text: alamar blue growth assay of T. brucei TbrPDEB1/B2 double knockout dependent on this PDE on TbrPDEB1
SMILES,dKO+TbrPDEB2 EC50 (TbrPDEB2),dKO+SmPDE4A / EC50 (SmPDE4A),EC50 [1],dKO+TbrPDEB1 EC50 (TbrPDEB1)
COc1ccc(C2=NN(C3CCCCCC3)C(=O)[C@@H]3CC=CC[C@H]23)cc1OCCCCOc1ccc(-c2nn[nH]n2)cc1 [NPD-001],84 ± 18 nM,24 ± 3 nM,0.1 ± 0.015 µM,–
COc1ccc(C2=NN(C3CCN(C(=O)CN4C(=O)CC(C)(C)CC4=O)CC3)C(=O)[C@@H]3CC=CC[C@H]23)cc1OC [NPD-226],82 ± 9 nM,40 ± 4 nM,0.16 ± 0.01 µM,290 ± 110 nM
N=C(N)c1ccc(OCCCCCOc2ccc(C(=N)N)cc2)cc1 [Pentamidine],–,–,0.0012 ± 0.0002 µM,–
COc1cc2c(cc1OC)-c1cc(=Nc3c(C)cc(C)cc3C)n(C)c(=O)n1CC2 [Trequisin],–,–,33.2 ± 0.9 µM,–
